Experimental data published in patent publication US20260262643A1, “HERBICIDAL BENZOXAZINES” (FMC CORPORATION, priority 2022, published 2026).

How the values were obtained:
sedge, umbrella = experiment: Test B flooded paddy test; type: in vivo, Cyperus difformis; conditions: 250 g ai/ha, Flood, 13 days, 0 to 100 scale (0 no effect, 100 complete control)
Outline: (§1)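 Each species was raised to the 2-leaf stage. At treatment, each pot received floodwater 3 cm deep, with the chemical delivered into the water. Greenhouse holding followed for 13 days, then percent control was estimated visually versus untreated pots.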

kochia [1] = experiment: Test A postemergence; type: in vivo, Bassia scoparia
Outline: (§2)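 Plants were grown in loam and sand and treated preemergence or postemergence (one- to two-leaf stage, 2–10 cm) with compound in solvent plus surfactant. Response was scored against untreated controls after 10 greenhouse days, where 0 means no effect and 100 complete control.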

goosegrass [2] = experiment: Test A postemergence; type: in vivo, Eleusine indica
Outline: as §2

galium = experiment: Test A postemergence; type: in vivo, Galium aparine
Outline: as §2

ryegrass, Italian [3] = experiment: Test A postemergence; type: in vivo, Lolium multiflorum
Outline: as §2

corn [4] = experiment: Test A preemergence; type: in vivo, Zea mays
Description: (§3) Seeds of plant species selected from barnyardgrass (Echinochloa crusgalli), blackgrass (Alopecurus myosuroides), corn (Zea mays), foxtail, giant (giant foxtail, Setaria faberi), goosegrass (Eleusine indica), kochia (Bassia scoparia), oat, wild (wild oat, Avena fatua), pigweed, palmer (palmer amaranth, palmer pigweed, Amaranthus palmeri), Pigweed, Redroot (redroot pigweed, Amaranthus retroflexus), ragweed (common ragweed, Ambrosia artemisiifolia), ryegrass, Italian (italian ryegrass, Lolium multiflorum), soybean (Glycine max), and wheat (Triticum aestivum) were planted into a blend of loam soil and sand and treated preemergence with a directed soil spray using test chemicals formulated in a non-phytotoxic solvent mixture which included a surfactant. At the same time, plants selected from these crops and weed species and also galium (catchweed bedstraw, Galium aparine) and horseweed (Erigeron canadensis) were planted in pots containing the same blend of loam soil and sand and treated with postemergence applications of test chemicals formulated in the same manner. Plants ranged in height from 2 to 10 cm and were in the one- to two-leaf stage for the postemergence treatment. Treated plants and untreated controls were maintained in a greenhouse for 10 days, after which time all treated plants were compared to untreated controls and visually evaluated for injury. Plant response ratings, summarized in Table A, are based on a 0 to 100 scale where 0 is no effect and 100 is complete control. A dash (-) response means no test result.

wheat [5] = experiment: Test A postemergence; type: in vivo, Triticum aestivum
Description: as §3

pigweed, palmer [6] = experiment: Test A preemergence; type: in vivo, Amaranthus palmeri
Outline: as §2

pigweed, palmer [7] = experiment: Test A postemergence; type: in vivo, Amaranthus palmeri
Outline: as §2

ragweed [8] = experiment: Test A postemergence; type: in vivo, Ambrosia artemisiifolia
Outline: as §2

blackgrass [9] = experiment: Test A postemergence; type: in vivo, Alopecurus myosuroides
Outline: as §2

barnyardgrass = experiment: Test B flooded paddy test; type: in vivo, Echinochloa crus-galli; conditions: 250 g ai/ha, Flood, 13 days, 0 to 100 scale (0 no effect, 100 complete control)
Outline: as §1

ryegrass, Italian [10] = experiment: Test A preemergence; type: in vivo, Lolium multiflorum
Outline: as §2

goosegrass [11] = experiment: Test A preemergence; type: in vivo, Eleusine indica
Outline: as §2

oat, wild [12] = experiment: Test A postemergence; type: in vivo, Avena fatua
Description: as §3

kochia [13] = experiment: Test A preemergence; type: in vivo, Bassia scoparia
Outline: as §2

ducksalad = experiment: Test B flooded paddy test; type: in vivo, Heteranthera limosa; conditions: 250 g ai/ha, Flood, 13 days, 0 to 100 scale (0 no effect, 100 complete control)
Outline: as §1

soybean [14] = experiment: Test A postemergence; type: in vivo, Glycine max; conditions: 500 g ai/ha, Postemergence; 0 to 100 scale
Description: as §3

wheat [15] = experiment: Test A preemergence; type: in vivo, Triticum aestivum
Description: as §3

oat, wild [16] = experiment: Test A preemergence; type: in vivo, Avena fatua
Description: as §3

blackgrass [17] = experiment: Test A preemergence; type: in vivo, Alopecurus myosuroides
Outline: as §2

rice = experiment: Test B flooded paddy test; type: in vivo, Oryza sativa; conditions: 250 g ai/ha, Flood, 13 days, 0 to 100 scale (0 no effect, 100 complete control)
Outline: as §1

foxtail, giant [18] = experiment: Test A preemergence; type: in vivo, Setaria faberi
Outline: as §2

foxtail, giant [19] = experiment: Test A postemergence; type: in vivo, Setaria faberi
Outline: as §2

soybean [20] = experiment: Test A preemergence; type: in vivo, Glycine max
Description: as §3

ragweed [21] = experiment: Test A preemergence; type: in vivo, Ambrosia artemisiifolia
Outline: as §2

corn [22] = experiment: Test A postemergence; type: in vivo, Zea mays
Description: as §3

[23] = 125 g ai/ha, postemergence, 10 days, visual injury, 0 to 100 scale (0 no effect, 100 complete control)
[24] = 500 g ai/ha, Postemergence, 0 to 100 scale
[25] = 125 g ai/ha, visual injury after 10 days, 0 to 100 scale, 0 is no effect, 100 is complete control
[26] = 500 g ai/ha, 0 to 100 scale (0 no effect, 100 complete control), 10 days

Cc1ccc(C(=O)N2CC(C)Oc3c(Cl)cccc32)cc1-n1cncn1 (stereo not shown) [Compound 38]
80: Plant response rating, Ryegrass, Italian (ryegrass, Italian [10]; [26]) | Plant response rating, Corn (corn [22]; [24])
40: Plant response rating, Oat, Wild (oat, wild [12]; [24])
0: Plant response rating, Sedge, Umbrella (sedge, umbrella) | Plant response rating, Ragweed (ragweed [8]; [23]) | Plant response rating, Ragweed (ragweed [8]; [24]) | Plant response rating, Blackgrass (blackgrass [9]; [23]) | Plant response rating, Barnyardgrass (barnyardgrass) | Plant response rating, Oat, Wild (oat, wild [12]; [23]) | Plant response rating, Kochia (kochia [13]; [25]) | Plant response rating, Ducksalad (ducksalad) | Plant response rating, Wheat (wheat [15]; [25]) | Plant response rating, Rice (rice) | Plant response rating, Soybean (soybean [20]; [25]) | Plant response rating, Ragweed (ragweed [21]; [25]) | Plant response rating, Ragweed (ragweed [21]; [26])
60: Plant response rating, Kochia (kochia [1]; [24]) | Plant response rating, Ryegrass, Italian (ryegrass, Italian [3]; [24]) | Plant response rating, Oat, Wild (oat, wild [16]; [26]) | Plant response rating, Foxtail, Giant (foxtail, giant [19]; [23])
30: Plant response rating, Goosegrass (goosegrass [2]; [23]) | Plant response rating, Galium (galium; [23]) | Plant response rating, Corn (corn [4]; [26]) | Plant response rating, Pigweed, Palmer (pigweed, palmer [7]; [23]) | Plant response rating, Kochia (kochia [13]; [26]) | Plant response rating, Blackgrass (blackgrass [17]; [25]) | Plant response rating, Soybean (soybean [20]; [26])
90: Plant response rating, Foxtail, Giant (foxtail, giant [19]; [24])
70: Plant response rating, Goosegrass (goosegrass [2]; [24]) | Plant response rating, Wheat (wheat [5]; [24]) | Plant response rating, Pigweed, Palmer (pigweed, palmer [6]; [26]) | Plant response rating, Blackgrass (blackgrass [9]; [24]) | Plant response rating, Ryegrass, Italian (ryegrass, Italian [10]; [25]) | Plant response rating, Goosegrass (goosegrass [11]; [25]) | Plant response rating, Blackgrass (blackgrass [17]; [26]) | Plant response rating, Foxtail, Giant (foxtail, giant [18]; [25])
50: Plant response rating, Galium (galium; [24]) | Plant response rating, Pigweed, Palmer (pigweed, palmer [7]; [24]) | Plant response rating, Soybean (soybean [14])
10: Plant response rating, Ryegrass, Italian (ryegrass, Italian [3]; [23]) | Plant response rating, Wheat (wheat [5]; [23]) | Plant response rating, Pigweed, Palmer (pigweed, palmer [6]; [25]) | Plant response rating, Wheat (wheat [15]; [26]) | Plant response rating, Oat, Wild (oat, wild [16]; [25])
20: Plant response rating, Kochia (kochia [1]; [23]) | Plant response rating, Corn (corn [4]; [25]) | Plant response rating, Corn (corn [22]; [23])
100: Plant response rating, Goosegrass (goosegrass [11]; [26]) | Plant response rating, Foxtail, Giant (foxtail, giant [18]; [26])
